Laboratory results published in PubChem BioAssay AID330 (DTP/NCI, 2004).
Where “and” joins values, the source holds several entries; their conditions need not be identical. Identical values can stand only once. Inconclusive results and toxic doses are left out. The calls were made as follows: active = survival T/C of 150% or more; inactive = T/C below 125% in these data.

Test system: P388 leukemia ip, CD2F1 mice, survival T/C
Test: NCI In Vivo Anticancer Drug Screen. Data for tumor model P388 Leukemia (intraperitoneal) in CD2F1 (CDF1) mice
Details: endpoint: median survival time, higher = longer survival
Outline: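 Mice carrying the transplanted tumor received test compound or vehicle. Survival was recorded in each group, and the value is the treated-group measurement divided by that of the vehicle-treated control group.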

[1] = dose: 50.0 mg/kg/injection, schedule: Q01DX009 (ip), vehicle: saline with Tween-80
[2] = dose: 100.0 mg/kg/injection, schedule: Q01DX009 (ip), vehicle: saline with Tween-80
[3] = dose: 200.0 mg/kg/injection, schedule: Q01DX009 (ip), vehicle: saline with Tween-80
[4] = dose: 30.0 mg/kg/injection, schedule: Q01DX005 (ip), vehicle: saline with Tween-80
[5] = dose: 60.0 mg/kg/injection, schedule: Q01DX005 (ip), vehicle: saline with Tween-80
[6] = dose: 120.0 mg/kg/injection, schedule: Q01DX005 (ip), vehicle: saline with Tween-80
[7] = dose: 100.0 mg/kg/injection, schedule: Q04DX002 (ip), vehicle: saline with Tween-80
[8] = dose: 200.0 mg/kg/injection, schedule: Q04DX002 (ip), vehicle: saline with Tween-80
[9] = dose: 240.0 mg/kg/injection, schedule: Q01DX005 (ip), vehicle: saline with Tween-80
[10] = dose: 60.0 mg/kg/injection, schedule: Q01DX005 (ip), vehicle: Klucel (hydroxypropylcellulose) (HPC)
[11] = dose: 120.0 mg/kg/injection, schedule: Q01DX005 (ip), vehicle: Klucel (hydroxypropylcellulose) (HPC)

Measured: T/C

CCOCc1cnc(C)nc1N
inactive: [1] 110 % of control | [2] 120 % of control | [3] 110 % of control

[Cu+2].[O-]/N=C/c1cccc(O)c1[O-].[O-]/N=C/c1cccc(O)c1[O-]
inactive: dose: 3.75 mg/kg/injection, schedule: Q01DX005 (ip), vehicle: saline with Tween-80 98 % of control | dose: 7.5 mg/kg/injection, schedule: Q01DX005 (ip), vehicle: saline with Tween-80 100 % of control | dose: 15.0 mg/kg/injection, schedule: Q01DX005 (ip), vehicle: saline with Tween-80 99 % of control and 104 % of control | [4] 102 % of control | [5] 99 % of control | [6] 92 % of control

COC(=O)C1(C(C)C(=O)c2ccccc2)NC(=S)NC(=O)C1C#N (stereo unspecified)
inactive: dose: 60.0 mg/kg/injection, schedule: Q01DX005 (ip), vehicle: saline 88 % of control | dose: 120.0 mg/kg/injection, schedule: Q01DX005 (ip), vehicle: saline 98 % of control | dose: 240.0 mg/kg/injection, schedule: Q01DX005 (ip), vehicle: saline 100 % of control

N#C/C(=C/c1cc(Br)c2c(c1)OCO2)C(N)=O
inactive: [7] 100 % of control | [8] 98 % of control | dose: 400.0 mg/kg/injection, schedule: Q04DX002 (ip), vehicle: saline with Tween-80 97 % of control

N#CCc1nc2ccccc2nc1Cl
inactive: dose: 50.0 mg/kg/injection, schedule: Q01DX009 (ip), vehicle: distilled water + Tween-80 + alcohol 100 % of control | dose: 100.0 mg/kg/injection, schedule: Q01DX009 (ip), vehicle: distilled water + Tween-80 + alcohol 94 % of control

Cc1nc2nc(Cl)c(Cl)nc2[nH]1
inactive: dose: 25.0 mg/kg/injection, schedule: Q01DX009 (ip), vehicle: saline with Tween-80 100 % of control | [1] 104 % of control | [2] 104 % of control

O=C(/C=C/c1cccc(Cl)c1)c1ccc(Cl)cc1
inactive: [4] 102 % of control | [5] 100 % of control | [6] 100 % of control | [9] 110 % of control

N#CC1C(=O)NC(=O)C(C#N)C1C1C(=O)NC2CCCCC21 (stereo unspecified)
inactive: [1] 114 % of control | [2] 99 % of control | [3] 112 % of control

COC(=O)Nc1nc2ccc(C(=O)OCC(C)C)cc2[nH]1
inactive: [7] 98 % of control | [8] 90 % of control

COC(=O)NC(=Nc1cccc(C(=O)c2ccc3nc(NC(=O)OC)[nH]c3c2)c1)NC(=O)OC
inactive: [6] 90 % of control

CC(CN(C)C)OC(=O)C1(c2ccccc2)CCOc2ccccc21 (stereo unspecified)
inactive: [5] 108 % of control | [6] 108 % of control | [9] 109 % of control

COc1ccc(C2COc3cc(O)c(O)cc3C2)cc1OC (stereo unspecified)
inactive: [5] 101 % of control | [6] 97 % of control | [9] 101 % of control

CSC(SC)c1cc(C)no1
inactive: [5] 107 % of control | [6] 101 % of control | [9] 103 % of control

CCn1c(=O)c2[nH]c(I)nc2n(CC)c1=O
inactive: dose: 25.0 mg/kg/injection, schedule: Q01DX009 (ip), vehicle: Klucel (hydroxypropylcellulose) (HPC) 99 % of control | dose: 50.0 mg/kg/injection, schedule: Q01DX009 (ip), vehicle: Klucel (hydroxypropylcellulose) (HPC) 99 % of control | dose: 100.0 mg/kg/injection, schedule: Q01DX009 (ip), vehicle: Klucel (hydroxypropylcellulose) (HPC) 106 % of control

c1c2c(cc3c1OCO3)Cc1cc3c(cc1Cc1cc4c(cc1C2)OCO4)OCO3
inactive: [1] 108 % of control | [2] 108 % of control | [3] 100 % of control

COc1ccc(S(=O)(=O)N/N=C(/C(=O)O)c2ccccc2)cc1
inactive: dose: 12.5 mg/kg/injection, schedule: Q01DX005 (ip), vehicle: saline with Tween-80 95 % of control | dose: 25.0 mg/kg/injection, schedule: Q01DX005 (ip), vehicle: saline with Tween-80 94 % of control | dose: 50.0 mg/kg/injection, schedule: Q01DX005 (ip), vehicle: saline with Tween-80 106 % of control | dose: 100.0 mg/kg/injection, schedule: Q01DX005 (ip), vehicle: saline with Tween-80 100 % of control | dose: 200.0 mg/kg/injection, schedule: Q01DX005 (ip), vehicle: saline with Tween-80 109 % of control and 112 % of control | dose: 400.0 mg/kg/injection, schedule: Q01DX005 (ip), vehicle: saline with Tween-80 109 % of control

CCOC(=O)c1cc([N+](=O)[O-])c[nH]1
inactive: [1] 97 % of control | [2] 96 % of control | [3] 95 % of control | dose: 400.0 mg/kg/injection, schedule: Q01DX009 (ip), vehicle: saline with Tween-80 89 % of control

C=C1C(=O)OC2C3[C@@]4(C)O[C@H]4[C@H]4O[C@@]34[C@](C)(O)CC(OC(C)=O)[C@@H]12 (stereo partly specified)
inactive: dose: 1687.5 micrograms/kg/injection, schedule: Q01DX005 (ip), vehicle: Klucel (hydroxypropylcellulose) (HPC) 104 % of control | dose: 3375.0 micrograms/kg/injection, schedule: Q01DX005 (ip), vehicle: Klucel (hydroxypropylcellulose) (HPC) 108 % of control | dose: 6750.0 micrograms/kg/injection, schedule: Q01DX005 (ip), vehicle: Klucel (hydroxypropylcellulose) (HPC) 100 % of control | dose: 13500.0 micrograms/kg/injection, schedule: Q01DX005 (ip), vehicle: Klucel (hydroxypropylcellulose) (HPC) 106 % of control

CC(=O)N1CCN(C(C)=O)N(C(C)=O)CCN1C(C)=O
inactive: dose: 100.0 mg/kg/injection, schedule: Q04DX003 (ip), vehicle: suspension in saline 94 % of control | dose: 200.0 mg/kg/injection, schedule: Q04DX003 (ip), vehicle: suspension in saline 97 % of control | dose: 400.0 mg/kg/injection, schedule: Q04DX003 (ip), vehicle: suspension in saline 94 % of control

[Cl][Sn]1([Cl])[CH2]CC[CH2][Sn]([Cl])([Cl])[CH2]CC[CH2][Sn]([Cl])([Cl])[CH2]CC[CH2][Sn]([Cl])([Cl])[CH2]CC[CH2]1
inactive: dose: 50.0 mg/kg/injection, schedule: Q01DX005 (ip), vehicle: saline 93 % of control | dose: 100.0 mg/kg/injection, schedule: Q01DX005 (ip), vehicle: saline 92 % of control | dose: 200.0 mg/kg/injection, schedule: Q01DX005 (ip), vehicle: saline 102 % of control

CCOc1cc2c3c(c(C)cc2cn1)CCC3=O
inactive: dose: 6.25 mg/kg/injection, schedule: Q01DX009 (ip), vehicle: distilled water + Tween-80 96 % of control | dose: 12.5 mg/kg/injection, schedule: Q01DX009 (ip), vehicle: distilled water + Tween-80 100 % of control | dose: 25.0 mg/kg/injection, schedule: Q01DX009 (ip), vehicle: distilled water + Tween-80 114 % of control | dose: 50.0 mg/kg/injection, schedule: Q01DX009 (ip), vehicle: distilled water + Tween-80 98 % of control and 96 % of control | dose: 100.0 mg/kg/injection, schedule: Q01DX009 (ip), vehicle: distilled water + Tween-80 115 % of control and 87 % of control | dose: 200.0 mg/kg/injection, schedule: Q01DX009 (ip), vehicle: distilled water + Tween-80 118 % of control

CCOC1OCN(C2CCCCC2)CC1(C)C (stereo unspecified)
inactive: [1] 109 % of control | [3] 110 % of control

COC(=O)c1nc(N)nc(C(=O)OC)c1C(=O)c1ccc(F)cc1
inactive: [10] 101 % of control | [11] 102 % of control

CCOC(=O)C1=C(N)OC(c2ccccc2)=C(C#N)C1c1ccccc1Cl (stereo unspecified)
inactive: dose: 50.0 mg/kg/injection, schedule: Q01DX005 (ip), vehicle: Klucel (hydroxypropylcellulose) (HPC) 101 % of control | dose: 100.0 mg/kg/injection, schedule: Q01DX005 (ip), vehicle: Klucel (hydroxypropylcellulose) (HPC) 113 % of control | dose: 200.0 mg/kg/injection, schedule: Q01DX005 (ip), vehicle: Klucel (hydroxypropylcellulose) (HPC) 97 % of control

O=c1[nH]nc(-c2ccccc2)c2nc3ccccc3n12
inactive: [10] 88 % of control | [11] 87 % of control | dose: 240.0 mg/kg/injection, schedule: Q01DX005 (ip), vehicle: Klucel (hydroxypropylcellulose) (HPC) 88 % of control
